Measurements from the OPERA property sets (Mansouri et al. 2018).
In brackets after ≈: the same amount, converted by molar mass.

Row | Compound | logP | solubility [mM]
1 | CC(C)(C#N)/N=N/C(C)(C)C#N | 1.1 | –
2 | CC(C)c1ccc(Br)c(C(C)C)c1NC(=O)CN(CC(=O)O)CC(=O)O | 0.2 | –
3 | Cc1nc(NCC(C)O)c(C#N)cc1-c1ccccc1 (configuration not stated) | 2.72 | –
4 | CCN1CC=C(c2ccccc2)CC1 | 3.18 | –
5 | c1ccc2cc3c(ccc4ccccc43)cc2c1 | 5.76 | –
6 | CC(C)c1ccc(NC(=O)CN(CC(=O)O)CC(=O)O)cc1Br | -0.08 | –
7 | Cc1ncc([N+](=O)[O-])n1C | 0.31 | –
8 | C[N+](C)(C)CCCl.[Cl-] | -3.8 | –
9 | Cc1cc(Cl)c(C(C)C)cc1Cl | 5.6 | –
10 | COC(=O)c1ccccc1CS(N)(=O)=O | 0.37 | –
11 | CCCCNCc1ccccc1 | 2.59 | –
12 | COC(=O)C1=C(C)NC(C)=C(C(=O)OCC(C)C)C1c1ccccc1[N+](=O)[O-] (configuration not stated) | 3.26 | –
13 | OC(CN1C2CCCC21)Cn1ccnc1 (configuration not stated) | 0.37 | –
14 | O=c1[nH]c2ccccc2n1CCCN1CCC(n2c(=O)[nH]c3cc(Cl)ccc32)CC1 | 3.9 | –
15 | Cc1c(Cl)cccc1[N+](=O)[O-] | 3.09 | –
16 | CC(C)(C#N)Nc1nc(Cl)nc(NC2CC2)n1 | 1.99 | –
17 | OCCOc1cccc2ccccc12 | 2.5 | –
18 | CCc1ccc2cc3ccccc3cc2c1 | – | 0.00013 (≈ 0.0268 µg/mL)
19 | Cc1cc(OCCN(C)C)c(C(C)C)cc1O | 2.93 | –
20 | CCNc1nc(NCC)nc(SC)n1 | 2.8 | –
21 | CCCCOCCOCCCC | 2.48 | –
22 | N#Cc1cc(-c2ccncc2)cnc1NCCO | 1.17 | –
23 | O=C1c2ccccc2C(=O)N1SC1CCCCC1 | 3.66 | –
24 | O=C(O)c1ccc(-c2ccccc2)cc1 | 3.75 | –
25 | CSc1ccc(C=C(C#N)C#N)o1 | 2.45 | –
26 | C=CCNc1ncc(-c2ccncc2)cc1C#N | 2.07 | –

Row | Compound | logP | solubility [mM]
27 | ClCC1(C(Cl)Cl)C2CC(Cl)(Cl)C1(C(Cl)Cl)C(Cl)C2Cl (configuration not stated) | 5.96 | –
28 | CCOC(=O)OCn1ncc2c(O)ncnc21 | 0.21 | –
29 | C[C@H](CCC(=O)NCC(=O)O)[C@H]1CC[C@H]2[C@@H]3[C@H](O)[C@H](O)[C@@H]4C[C@H](O)CC[C@]4(C)[C@H]3CC[C@]12C | 1.9 | –
30 | Cc1cccc([N+](=O)[O-])c1C | 2.83 | –
31 | N#Cc1c(Cl)c(Cl)c(Cl)c(C#N)c1Cl | 3.05 | –
32 | Clc1ccc(Cn2cncn2)cc1 | 1.84 | –
33 | Oc1ccc(O)cc1 | – | 654 (≈ 72000 µg/mL)
34 | Cc1cc(C)nc(NS(=O)(=O)c2ccc(N)cc2)n1 | 0.19 | –
35 | CNC(=O)CCc1ccccc1 | 1.17 | –
36 | Clc1cc(Cl)c2[nH]c3c(Cl)cc(Cl)cc3c2c1 | 5.75 | –
37 | COC(=O)C1CC(=O)N(C)C1 (configuration not stated) | -0.74 | –
38 | CC1=CC(=O)C(C)=C(C)C1=O | 1.82 | –
39 | Cc1cccc(NC(=O)c2ccccc2C(=O)O)c1 | – | 3.92 (≈ 1000 µg/mL)
40 | CCCC(C)C=O (configuration not stated) | – | 41.9 (≈ 4200 µg/mL)
41 | O=C(Nc1ccccc1)n1cc(F)c(=O)[nH]c1=O | 1.5 | –
42 | CC1=C(C(=O)OC(C)C)C(c2cccc([N+](=O)[O-])c2)C(C(=O)OC2CN(C(c3ccccc3)c3ccccc3)C2)=C(N)N1 (configuration not stated) | 5.18 | –
43 | CC(C)C(C#N)c1ccc(Cl)cc1 (configuration not stated) | 3.41 | –
44 | CCC1CCCCC1 | 4.56 | –
45 | CC(=O)Nc1ncc2ncn(COCCO)c2n1 | -1.33 | –
46 | CC(C)/N=c1/cc2n(-c3ccc(Cl)cc3)c3ccccc3nc-2cc1Nc1ccc(Cl)cc1 | 7.66 | –
47 | CCCN(CCC)C1COc2ccc(O)cc2C1 (configuration not stated) | 3.19 | –
48 | CCN1CCC(CNC(=O)c2cc(S(N)(=O)=O)c(N)cc2OC)C1 (configuration not stated) | 0.66 | –
49 | Cc1ccccc1NCc1cnc2nc(N)nc(N)c2c1C | 1.98 | –
50 | CCCCCCCCCC | 5.01 | –
51 | N=C(N)NN=C1C=CC(=NNC(N)=S)C=C1 | 1.23 | –
52 | Cc1nc(N2CCOCC2)c(C#N)cc1-c1ccccc1 | 3.65 | –

Row | Compound | logP | solubility [mM]
53 | OCc1c(Cl)cccc1Cl | 2.02 | –
54 | c1ccc2c(c1)cc1ccc3cccc4ccc2c1c34 | 6.13 | –
55 | Oc1c(O)c(Cl)c(Cl)c(Cl)c1Cl | – | 0.0109 (≈ 2.7 µg/mL)
56 | CCOC(=O)CCn1nc2ccccc2n1 | 2.12 | –
57 | CCCCN(CCOC(C)=O)c1ccc(N=Nc2c(C#N)cc([N+](=O)[O-])cc2C#N)c(C)c1 | 5.5 | 1.32e-06 (≈ 0.00059 µg/mL)
58 | O=c1[nH]c(=O)c2[nH]c(=O)[nH]c2[nH]1 | -2.17 | –
59 | Nc1nc(NC(=O)C(F)(F)C(F)(F)C(F)(F)F)n[nH]1 | 1.54 | –
60 | CN(C)CCCN1c2cc(O)ccc2Sc2ccc(Cl)cc21 | 4.63 | –
61 | CCOCCn1cnc2c(=N)n(C)c(=O)[nH]c21 | -0.4 | –
62 | NC(=O)NCCCn1nc(-c2ccccc2)ccc1=O | 0.69 | –
63 | CCOc1cc(C=O)ccc1O | 1.58 | –
64 | O=[N+]([O-])c1ccc(O)cc1C(F)(F)F | – | 24.1 (≈ 5000 µg/mL)
65 | COc1ccc(C(=O)CS(=O)(=O)c2ccccc2)cc1 | 2.18 | –
66 | Clc1cc2c(Cl)ccc(Cl)c2c(Cl)c1Cl | 6.8 | –
67 | O=c1ccn(C2OC(CO)CC2F)c(=O)[nH]1 (configuration not stated) | -0.87 | –
68 | COC(=O)c1ccc(Cl)cc1 | 2.87 | –
69 | COc1ccc(C=O)cc1OC | 1.22 | –
70 | OCc1cc(Br)cc(Br)c1O | 2.72 | –
71 | C#CC(C)(C)NC(=O)c1cc(Cl)cc(Cl)c1 | 3.43 | –
72 | CCC(CO)(CO)CO | -1.48 | –
73 | CCOc1ccc([N+](=O)[O-])cc1NC(=O)CC | 1.85 | –
74 | O=C(O)CNC(=O)c1cccc(I)c1 | 1.88 | –
75 | CCCCC(=O)Oc1ccc(CC(N)C(=O)O)cc1 (configuration not stated) | 0.07 | –
76 | Cc1nc(NCc2ccccc2)nc(C(Cl)(Cl)Cl)n1 | 3.86 | –
